According to patent publication US20080064727A1, “Crystalline forms of tiagabine hydrochloride” (Cephalon, Inc., priority 2006, published 2008):

How the values were obtained:
Format in all cases: physicochemical
[1] = Approximate solubility in various solvents by aliquot addition, visual dissolution; details: thermodynamic from solid, amorphous obtained by Preparation Method 3
Method: Dissolution was determined visually. The actual solubilities may be higher than reported due to the use of excess solvent (e.g., because of slow dissolution rates).

[2] = Solid-form stability on heating, resulting form by XRPD analysis; details: heated five (5) minutes at about 160° C. in an argon atmosphere, lyophilized sample (Preparation Method 3), hydrochloride
Method: (§1) X-ray powder diffraction (XRPD) analyses were performed using the following instruments & methods:
(§2) A. Shimadzu XRD-6000 X-ray powder diffractometer using Cu Kα radiation. The instrument was equipped with a long fine focus X-ray tube. The tube voltage and amperage were set to 40 kV and 40 mA, respectively. The divergence and scattering slits were set at 1° and the receiving slit was set at 0.15 mm. Diffracted radiation was detected by a NaI scintillation detector. A θ-2θ continuous scan at 3°/min (0.4 sec/0.02° step) from 2.5 to 40° 2θ was used. A silicon standard was analyzed to check the instrument alignment. Data were collected and analyzed using XRD-6000 v. 4.1. Samples were prepared for analysis by placing them in a sample holder.
(§3) B. Inel XRG-3000 diffractometer, equipped with a CPS (Curved Position Sensitive) detector with a 2 Orange of 120°. Real time data were collected using Cu—Kα radiation starting at approximately 4° 2θ at a resolution of 0.03° 2θ. The tube voltage and amperage were set to 40 kV and 30 mA, respectively. The monochromator slit was set at 5 mm by 80 μm or 160 μm. […] Samples were prepared for analysis by packing them into thin-walled glass capillaries. Each capillary was mounted onto a goniometer head that is motorized to permit spinning of the capillary during data acquisition. The acquisition time was between 5 to 10 min. Instrument calibration was performed using a silicon reference standard.
C. Shimadzu XRD-6000 X-ray powder diffractometer equipped with an Anton Paar HTK 1200 high temperature stage (Variable-temperature XRPD (VT-XRPD)). The sample was packed in a ceramic holder and analyzed form 2.5 to 40° 2θ at 3°/min (0.4 sec/0.02° step). The heating rate was 10° C./min. A silicon standard was analyzed to check the instrument alignment. Temperature calibration was performed using vanillin and sulfapyridine USP melting point standards. Data were collected and analyzed using XPD-6000 v.4.1. The system was kept under a purge of nitrogen during the analysis.
(§4) D. Bruker D-8 Discover diffractometer and Bruker's General Area Diffraction Detection System (GADDS, v. 4.1.20). An incident beam of Cu—Kα radiation was produced using a fine-focus tube (40 kV, 40 mA), a Gobel mirror, and a 0.5 mm double-pinhole collimator. The samples were positioned for analysis by securing the well plate to a translation stage and moving each sample to intersect the incident beam. Alternatively, the sample was packed between 3-micron thick films to form a portable disc-shaped specimen, and the specimen was loaded in a holder secured to a translation stage. The samples were analyzed using a transmission geometry. The incident beam was scanned and rastered over the sample during the analysis to optimize orientation statistics. A beam-stop was used to minimize air scatter from the incident beam at low angles. Diffraction patterns were collected using a Hi-Star area detector located 15 cm from the sample and processed using GADDS. The intensity in the GADDS image of the diffraction pattern was integrated using a step size of 0.04° 2θ. The integrated patterns display diffraction intensity as a function of 2θ. Prior to the analysis a silicon standard was analyzed to verify the Si 111 peak position.
E. Peak Picking Methods. Any XRPD files generated from Inel or Bruker XRPD instruments were converted to Shimadzu .raw file using File Monkey version 3.0.4. The Shimadzu .raw file was processed by the Shimadzu XRD-6000 version 4.1 software to automatically find peak positions. The “peak position” means the maximum intensity of a peaked intensity profile. The following processes were used with the Shimadzu XRD-6000 “Basic Process” version 2.6 algorithm: • Smoothing was done on all patterns. • The background was subtracted to find the net, relative intensity of the peaks. • A peak from Cu K alpha2 (1.5444 Å) wavelength was subtracted from the peak generated by Cu K alpha1 (1.5406 Å) peak at 50% intensity for all patterns. […]

[3] = Moisture sorption/desorption (VTI SGA-100 moisture balance)
Method: Moisture sorption/desorption data were collected on a VTI SGA-100 moisture balance system. For sorption isotherms, a sorption range of 5 to 95% relative humidity (RH) and a desorption range of 95 to 5% RH in 10% RH increments were used for analysis. The samples were not dried prior to analysis. Equilibrium criteria used for analysis were less than 0.0100% weight change in 5 minutes with a maximum equilibration time of 3 hours if the weight criterion was not met. Data were not corrected for the initial moisture content of the samples.

[4] = Solid-form stability on storage, resulting form by XRPD analysis
Method: as §1, §2, §3, §4
E. Peak Picking Methods. Any XRPD files generated from Inel or Bruker XRPD instruments were converted to Shimadzu .raw file using File Monkey version 3.0.4. The Shimadzu .raw file was processed by the Shimadzu XRD-6000 version 4.1 software to automatically find peak positions. The “peak position” means the maximum intensity of a peaked intensity profile. The following processes were used with the Shimadzu XRD-6000 “Basic Process” version 2.6 algorithm: • Smoothing was done on all patterns. • The background was subtracted to find the net, relative intensity of the peaks. • A peak from Cu K alpha2 (1.5444 Å) wavelength was subtracted from the peak generated by Cu K alpha1 (1.5406 Å) peak at 50% intensity for all patterns. Differential Scanning Calorimetry

solubility ([1]; aqueous with cosolvent or surfactant or cyclodextrin, solvent: 2-propanol/water (1:1)): > 129 mg/mL
solubility ([1]; organic solvent or mixture, solvent: 1,4 dioxane/water (3:1)): > 359 mg/mL
solubility ([1]; organic solvent or mixture, solvent: Acetonitrile): < 26 mg/mL
solubility ([1]; organic solvent or mixture, solvent: Benzonitrile): > 448 mg/mL
solubility ([1]; organic solvent or mixture, solvent: Chloroform): > 582 mg/mL
solubility ([1]; organic solvent or mixture, solvent: Dichloromethane): < 34 mg/mL
solubility ([1]; organic solvent or mixture, solvent: Dioxane): > 542 mg/mL
solubility ([1]; organic solvent or mixture, solvent: Tetrahydrofuran): > 562 mg/mL
solubility ([1]; organic solvent or mixture, solvent: Toluene): < 43 mg/mL
solubility ([1]; organic solvent or mixture, solvent: Trifluoroethanol): > 713 mg/mL
solubility ([1]; organic solvent or mixture, solvent: ethanol/water (10:1)): > 400 mg/mL
solubility ([1]; organic solvent or mixture, solvent: ethyl acetate (wet)): > 1190 mg/mL
solubility ([1]; organic solvent or mixture, solvent: ethyl acetate): < 24 mg/mL
solubility ([1]; organic solvent or mixture, solvent: methyl ethyl ketone): > 546 mg/mL
solubility ([1]; organic solvent or mixture, solvent: methyl-tert-butyl ether): < 14 mg/mL
solubility ([1]; water, solvent: Water): > 490 mg/mL
Form indicated by XRPD analysis after heating [2]: tiagabine HCl Form B
Form indicated by XRPD analysis after heating ([2]; listed as Tiagabine hydrochloride amorphous): tiagabine hydrochloride anhydrous
Weight gain upon sorption ([3]; at 95% relative humidity (RH)): 12.1%
Weight loss upon desorption ([3]; from 95% to 5% RH): 9.5%
Forms present by XRPD analysis after moisture sorption/desorption ([3]; sample after sorption 5 to 95% RH and desorption 95 to 5% RH): tiagabine HCl Forms A and B
Time stable when stored ([4]; about 5° C., 11% relative humidity): at least 5 days
Time stable when stored ([4]; about 5° C., 43% relative humidity): ≥ 8 days
Time stable when stored ([4]; room temperature, 33% relative humidity): at least 22 days
Time stable when stored ([4]; room temperature, 58% relative humidity): at least 22 days
Form indicated by XRPD analysis after storage ([4]; stored 5 days, about 5° C., about 11% relative humidity, lyophilized sample (Preparation Method 3)): tiagabine HCl amorphous
Form indicated by XRPD analysis after storage ([4]; stored 8 days, about 5° C., about 43% relative humidity, lyophilized sample (Preparation Method 3)): tiagabine HCl amorphous
Form indicated by XRPD analysis after storage ([4]; stored 22 days, room temperature, about 33% relative humidity, crash-cooled sample (Preparation Method 1)): tiagabine HCl amorphous
Form indicated by XRPD analysis after storage ([4]; stored 22 days, room temperature, about 58% relative humidity, crash-cooled sample (Preparation Method 1)): tiagabine HCl amorphous
Form indicated by XRPD analysis after storage ([4]; stored 22 days, room temperature, about 75% relative humidity, crash-cooled sample (Preparation Method 1), listed as Tiagabine hydrochloride amorphous, hydrochloride): a mixture of Forms A and B
Form indicated by XRPD analysis after storage ([4]; stored 22 days, room temperature, about 84% relative humidity, crash-cooled sample (Preparation Method 1), listed as Tiagabine hydrochloride amorphous, hydrochloride): a mixture of Forms A and B
SMILES: Cc1ccsc1C(=CCCN1CCC[C@@H](C(=O)O)C1)c1sccc1C.Cl [tiagabine HCl amorphous, tiagabine hydrochloride]
Form indicated by XRPD analysis after storage ([4]; stored 22 days, room temperature, about 75% relative humidity, crash-cooled sample (Preparation Method 1), hydrochloride): a mixture of tiagabine hydrochloride Forms A and B
Form indicated by XRPD analysis after storage ([4]; stored 22 days, room temperature, about 84% relative humidity, crash-cooled sample (Preparation Method 1), hydrochloride): a mixture of tiagabine hydrochloride Forms A and B
